{
  "source": "PubChem BioAssay AID1996",
  "data": [
    {"details": "buffer; pH 7.4; 200.0 µM", "units": {"solubility kinetic": "µg/mL"}, "values": [
      {"compound": "O=C1Nc2ccccc2CCc2ccccc21", "solubility kinetic": "> 33.5"},
      {"compound": "COc1ccc(OC)c(NC(=O)Nc2ccc3c(c2)CCC3)c1", "solubility kinetic": 1.3},
      {"compound": "Cc1ccccc1-n1c(C)c(C#N)c(=O)c(-[n+]2ccccc2)c1[S-]", "solubility kinetic": 45.5},
      {"compound": "COc1cc(S(=O)(=O)NCc2ccncc2)c(OC)cc1C", "solubility kinetic": "> 48.4"},
      {"compound": "CC(C)(C)SCCNC(=O)/C=C/c1ccccc1", "solubility kinetic": 33.9},
      {"compound": "CN(C)c1cc(-c2ccccc2)nc(-c2ccccc2)n1", "solubility kinetic": "< 0.2"},
      {"compound": "Cc1ccc(S(=O)(=O)N2CCN(C(=O)CN3C(=O)NC(C)(c4ccc(Cl)cc4)C3=O)CC2)c(C)c1", "note": "(configuration not stated)", "solubility kinetic": 3.3},
      {"compound": "O=C1c2ccccc2C(=O)C1c1ccccn1", "solubility kinetic": 14.2},
      {"compound": "O=C(NCCCN1CCCC1=O)c1cc(-c2ccc(F)cc2)nc2ccccc12", "solubility kinetic": "> 58.7"},
      {"compound": "CC(C)CC(=O)N1CCN(Cc2ccc3ccccc3c2)CC1", "solubility kinetic": 26.4},
      {"compound": "CCOc1ccc(C(=O)C(C)OC(=O)c2cnc(C)cn2)cc1", "note": "(configuration not stated)", "solubility kinetic": "> 47.2"},
      {"compound": "CCOc1ccc(CCNC(=O)Nc2ccccc2)cc1OCC", "solubility kinetic": 5.9},
      {"compound": "Cc1ccc(S(=O)(=O)NCCC(=O)Oc2ccc3ccc(=O)oc3c2)cc1", "solubility kinetic": 25.5},
      {"compound": "O=C(COC(=O)/C=C/c1ccccc1)NC1CCCCCC1", "solubility kinetic": 10.4},
      {"compound": "O=[N+]([O-])c1ccccc1/C=C/CN1CCCCC1CO", "note": "(configuration not stated)", "solubility kinetic": 34.3},
      {"compound": "Cc1ccc(CONC(=O)c2ccc([N+](=O)[O-])cc2)cc1", "solubility kinetic": 2.1},
      {"compound": "COCCCNc1oc(/C=C/c2ccccc2)nc1C#N", "solubility kinetic": 3.7},
      {"compound": "O=C(c1ccc(F)cc1)c1ccc(-c2ccc(F)cc2)nc1", "solubility kinetic": 0.9},
      {"compound": "CC(=O)Nc1ccc2nc(NC(=O)c3ccc([N+](=O)[O-])o3)sc2c1", "solubility kinetic": 4},
      {"compound": "O=C(COC(=O)c1ccc[nH]c1=O)NC1CC1", "solubility kinetic": 32.3},
      {"compound": "CN(C)c1cc(Nc2cccc(O)c2)c([N+](=O)[O-])c2nonc12", "solubility kinetic": 0.4},
      {"compound": "CCCCS(=O)(=O)N1CCCC(C(=O)Oc2ccccc2)C1", "note": "(configuration not stated)", "solubility kinetic": 13.9},
      {"compound": "N/C(=N\\OC(=O)CSc1ccccc1)c1ccccn1", "solubility kinetic": "> 43.1"},
      {"compound": "COc1ccc(C(=O)NCCNC(=O)c2ccccn2)cc1", "solubility kinetic": "> 44.9"},
      {"compound": "CCc1ccc(/C=C\\C(=O)N2CCCC2)cc1", "solubility kinetic": 28.3},
      {"compound": "O=[N+]([O-])c1cc([N+](=O)[O-])c2nonc2c1Nc1ccc(O)cc1", "solubility kinetic": "> 47.6"},
      {"compound": "CC(=O)c1ccc(NC(=O)CCNC(=O)c2ccccc2Cl)cc1", "solubility kinetic": 48.8},
      {"compound": "Cc1cccc(N2CCN(C(=O)c3ccc(S(=O)(=O)N(C)c4ccccc4)cc3)CC2)c1C", "solubility kinetic": 6.7},
      {"compound": "CC1CN(c2ccnc3cc(Cl)ccc23)CC(C)O1", "note": "(configuration not stated)", "solubility kinetic": "> 41.5"},
      {"compound": "Cc1noc(NS(=O)(=O)c2ccc(NC(=O)c3cccc(S(=O)(=O)Nc4ccccc4F)c3)cc2)c1C", "solubility kinetic": 71.3},
      {"compound": "O=C(COC(=O)CN1CCSC1=O)Nc1ccc(F)cc1Cl", "solubility kinetic": "> 52"},
      {"compound": "CCOC(=O)c1oc2ccccc2c1NC(=O)C(C)(C)C", "solubility kinetic": 22.6},
      {"compound": "COc1ccccc1-c1cc(C(=O)N2CCCc3ccccc32)no1", "solubility kinetic": 3.1},
      {"compound": "Cc1ccc(Oc2ncccc2N)c2c1CCC2", "solubility kinetic": 10.1},
      {"compound": "O=C(Cn1cc(C(F)(F)F)ccc1=O)NCc1ccc(F)cc1", "solubility kinetic": "> 49.2"},
      {"compound": "COc1ccc(-c2cc(C(=O)Nc3ccccc3O)c3ccccc3n2)cc1", "solubility kinetic": "< 0.4"},
      {"compound": "CCn1cc(C(=O)OC)c(=O)c2ccc(C)nc21", "solubility kinetic": 36.4},
      {"compound": "COc1ccc(-c2nnc(SCC(=O)NC3CC3)o2)cc1", "solubility kinetic": "> 45.8"},
      {"compound": "COc1cc2[nH]c(=S)nc(NCc3ccc(C)cc3)c2cc1OC", "solubility kinetic": 3.8},
      {"compound": "CCc1onc(C)c1C(=O)Nc1ccc2c(c1)OCO2", "solubility kinetic": "> 41.1"},
      {"compound": "O=c1cc(-c2ccccc2O)nc(-c2ccccc2)[nH]1", "solubility kinetic": 0.8},
      {"compound": "CCOC(=O)N1CCc2c(sc(N)c2C#N)C1", "solubility kinetic": 31.2},
      {"compound": "Cc1[nH]c2ccccc2c1C(=O)CSc1ccccn1", "solubility kinetic": 1.4},
      {"compound": "O=C(NC(=S)N1CCCC(O)C1)c1ccco1", "note": "(configuration not stated)", "solubility kinetic": "> 38.1"},
      {"compound": "Cc1ccccc1C(=O)N1CCC(C(=O)NC2CCCCC2)CC1", "solubility kinetic": 44.4},
      {"compound": "O=C1CSC(c2cccnc2)N1Cc1ccc(Cl)c(Cl)c1", "note": "(configuration not stated)", "solubility kinetic": 48.7},
      {"compound": "COc1ccc(OC)c(C(C)NC(=O)C(C)Cc2ccccc2)c1", "note": "(configuration not stated)", "solubility kinetic": 45.7}
    ]}
  ]
}
